{
  "source": "patent US9737502B2",
  "about": "“Calebin A for hepatic steatosis” (SAMI LABS LIMITED, priority 2011, dated 2017)",
  "key": {"[1]": {"test_system": "3T3-L1 cells", "test": "Oil Red-O staining of adipogenic cultures (adipogenesis inhibition)", "type": "cell-based, mouse", "method": "Terminal differentiation of adipocytes is accompanied by the accumulation of great amounts of lipids in large cytoplasmic vesicles. A common assay to measure adipocyte differentiation in cell culture is with the dye Oil Red-O (ORO). ORO is a lipid-soluble bright red dye which is a reliable indicator of adipocyte differentiation (adipogenesis).\n3T3-L1 cells approximately 60×10^4 cells are seeded for 48-72 hrs to get 70-80% confluence. After 48 hrs 200 μl of AIM (Adipogenesis induction medium) freshly prepared is added. 72 hrs later 200 μl APM (Adipogenesis progression medium) with the test compounds in different concentrations is added to the wells. The cells are incubated for 48 hrs in a humidified atmosphere (37° C.) of 5% CO2 and 95% air. The supernatant is collected and stored for the estimation of leptin, adiponectin, IL-6 and TNF-α by ELISA. Cells are fixed by adding 100 μl of 10% formalin and ORO staining is done. OD is read at 492 nm in microplate reader. The results are expressed as IC50 values using Graphpad prism software.\nThe percentage of inhibition of adipogenesis is calculated as follows, % inhibition=C−T/[…] Where C-absorbance of Oil red 0 in differentiating/undifferentiated cells T-absorbance of Oil Red-O in sample treated differentiating/undifferentiated cells. The estimation of leptin, adiponectin, IL-6 and TNF-α is done according to user's manual from R&D Systems."}, "[2]": {"test_system": "TNF-α", "test": "Intracellular TNF-α in LPS-stimulated murine neutrophils (flow cytometry)", "type": "cell-based", "conditions": "for Expression of TNF-α Mean ± S.E: LPS Control 2.62 ± 0.01", "method": "The present inventors also adduce extra evidence to support the ability of Calebin A to suppress intracellular TNF and extracellular IL-1β in murine neutrophil systems (Table II, Table III). Neutrophils are isolated by histopaque gradient method tested for their ability to produce in vitro TNF-α following stimulation with Lipopolysaccharide (LPS). The cells were incubated with phycoerythrin (PE)-labeled anti-mouse TNF-α in the dark, and after being washed with sterile PBS, samples were resuspended in PBS (pH 7.4) and acquired directly on the flow cytometer (BDLSR; Becton Dickinson). A fluorescence trigger was set on the PE […] parameter of the gated neutrophil populations (10,000 events). Rolipram at 100 μg/ml was used as standard inhibitor of TNF-α in this study. Fluorescence compensation, data analysis, and data presentation were performed using Cell Quest Pro software (Becton Dickinson)."}, "[3]": {"test_system": "IL-1β", "test": "Extracellular IL-1β in LPS-stimulated murine neutrophils", "type": "cell-based", "conditions": "for IL-1β Concentration: LPS Control 51.80 ± 2.18"}, "[4]": {"test_system": "leptin", "test": "Study 2: serum leptin by ELISA in obese mice", "type": "in vivo, C57 mice", "conditions": "Study 2, end of study period", "method": "Further, on completion of the study period blood samples were collected from all the animals in […] for estimation of systemic expression of leptin and adiponectin. Blood samples were collected humanely from retro-orbital plexus puncture method under mild ether anesthesia with the help of a fine capillary tube. The blood samples collected in tubes without anticoagulant were centrifuged at 3000 rpm for 10 minutes to obtain serum which was subjected to ELISA technique for the estimation of leptin and adiponectin. The import of leptin and adiponectin expression as biomarkers in obesity has been discussed in aforesaid paragraphs. […] Low systemic adiponectin levels have been cited as predictive factors in the progression of disease states like Type II Diabetes mellitus (Chamukuttan Snehalatha et al, “Plasma Adiponectin Is an Independent Predictor of Type 2 Diabetes in Asian Indians”, Diabetes Care December 2003 vol. 26 no. 12 3226-3229)."}, "[5]": {"test": "Serum biochemistry (TCHO, TG, HDL, GOT, GPT) in HFD-fed mice, 12 weeks", "type": "in vivo, C57BL/6J mice", "conditions": "for GPT: HFD 38.25 ± 8.92; for HDL: HFD 109.40 ± 1.34; for TG: HFD 151.00 ± 8.89; for TCHO: HFD 162.67 ± 15.89; for GOT: HFD 335.28 ± 18.80", "method": "Food cups were replenished with fresh diet daily. […] Statistical analysis was done by Student's t test.\nC57BL/6J mice fed with HFD for period of 12 weeks were evaluated for serum levels of GOT and GTP. Results indicated enhanced serum GOT and GTP (TABLE XI) when compared to the ND group.\nData were presented as the mean±SE (n=8 per group). […] ND: normal diet; HFD: high fat diet."}, "[6]": {"test_system": "HFD induced hepatic steatosis", "test": "Liver histopathology and hepatic triglyceride in HFD-fed mice", "type": "in vivo, C57BL/6J mice", "conditions": "Calebin A 0.25% and 1% in HFD, dose dependant", "method": "A portion of the livers in different groups were dissected and fixed in 10% buffered formalin for at least 24 hours, then dehydrated with a sequence of ethanol solutions and processed for embedding in paraffin. Sections of 5-6 μm in thickness were cut, deparaffinized, rehydrated, stained with haematoxylin & eosin (H&E) and subjected to pbotomicroscopic assessment. Liver histopathology was evaluated according to the NAFLD system outlined in Kleiner, D. E., Brunt, E. M., Van, N. M., Behling, C. et al., Design and validation of a histological scoring system for nonalcoholic fatty liver disease. Hepatology 2005, 41, 1313-1321. The score of hepatocellular ballooning was graded 0-2 based on the number of balloon cell per field at ×200 magnification (grading: 0=no balloon cell; 1=few balloon cells; 2=prominent balloon cells) in H&E stained sections. The number of infiltrating immune cells was counted at 200× magnification in five different areas. In the HFD group significant inflammatory degeneration, hepatocellular ballooning degeneration and triglyceride accumulation were seen. Quantitative analysis indicated elevated hepatic triglyceride levels as compared to the ND group. Administration of Calebin A at concentrations of 0.25% and 1% attenuated HFD induced triglyceride, hepatocellular ballooning degeneration and inflammatory infiltration in a dose dependant manner. Accordingly, in another most preferred embodiment, the present invention relates to a method of treating high fat diet (HFD) induced hepatic steatosis in mammals, said method comprising step of bringing into contact HFD affected hepatic cells marked by inflammatory infiltration, hepatocellular ballooning degeneration and high triglyceride levels with Calebin A derived from orally administering to said mammals effective concentrations of Calebin A to bring about the effect of attenuation of hepatic steatosis in a dose dependant manner. Alternatively, in another most preferred embodiment, the present invention also relates to Calebin A for treating high fat diet (HFD) induced hepatic steatosis in mammals."}},
  "note": "Marks after values point to notes of the source that are not given here.",
  "data": [
    {"smiles": "COc1cc(/C=C/C(=O)COC(=O)/C=C/c2ccc(O)c(OC)c2)ccc1O", "note": "[Calebin A]", "values": [
      {"measurement": "percentage adipogenesis inhibition", "setting": "[1]; 0.5 μg/ml", "value": 32.43, "unit": "%"},
      {"measurement": "percentage adipogenesis inhibition", "setting": "[1]; 1.0 μg/ml", "value": 38.59, "unit": "%"},
      {"measurement": "percentage adipogenesis inhibition", "setting": "[1]; 2.0 μg/ml", "value": 35.8, "unit": "%"},
      {"measurement": "% Activity (suppression of TNF-α expression)", "setting": "[2]; 0.5 μg/ml", "value": 28.62, "unit": "%↓"},
      {"measurement": "Expression of TNF-α Mean ± S.E", "setting": "[2]; 0.5 μg/ml", "value": "1.87 ± 0.04"},
      {"measurement": "% Activity (suppression of TNF-α expression)", "setting": "[2]; 1.0 μg/ml", "value": 35.11, "unit": "%↓"},
      {"measurement": "Expression of TNF-α Mean ± S.E", "setting": "[2]; 1.0 μg/ml", "value": "1.70 ± 0.02"},
      {"measurement": "% Activity (suppression of TNF-α expression)", "setting": "[2]; 2.0 μg/ml", "value": 39.31, "unit": "%↓"},
      {"measurement": "Expression of TNF-α Mean ± S.E", "setting": "[2]; 2.0 μg/ml", "value": "1.59 ± 0.05"},
      {"measurement": "% Activity (suppression of IL-1 β expression)", "setting": "[3]; 0.5 μg/ml", "value": 20.38, "unit": "%↓"},
      {"measurement": "IL-1β Concentration", "setting": "[3]; 0.5 μg/ml", "value": "41.24 ± 1.16", "unit": "pg/mL"},
      {"measurement": "% Activity (suppression of IL-1 β expression)", "setting": "[3]; 1.0 μg/ml", "value": 24.20, "unit": "%↓"},
      {"measurement": "IL-1β Concentration", "setting": "[3]; 1.0 μg/ml", "value": "39.26 ± 2.52", "unit": "pg/mL"},
      {"measurement": "% Activity (suppression of IL-1 β expression)", "setting": "[3]; 2.0 μg/ml", "value": 28.26, "unit": "%↓"},
      {"measurement": "IL-1β Concentration", "setting": "[3]; 2.0 μg/ml", "value": "37.16 ± 2.11", "unit": "pg/mL"},
      {"measurement": "inhibition of leptin expression in the serum of obese animals", "setting": "[4]", "value": "insignificant effect"},
      {"measurement": "GPT", "setting": "[5]; HFD + 0.25% Calebin A", "value": "23.00 ± 2.92^c U/l"},
      {"measurement": "HDL", "setting": "[5]; HFD + 0.25% Calebin A", "value": "107.80 ± 2.05^a mg/dl"},
      {"measurement": "TG", "setting": "[5]; HFD + 0.25% Calebin A", "value": "121.25 ± 6.55^b mg/dl"},
      {"measurement": "TCHO", "setting": "[5]; HFD + 0.25% Calebin A", "value": "136.50 ± 7.51^c mg/dl"},
      {"measurement": "GOT", "setting": "[5]; HFD + 0.25% Calebin A", "value": "110.33 ± 2.52^b U/l"},
      {"measurement": "GPT", "setting": "[5]; HFD + 1% Calebin A", "value": "32.50 ± 3.00^a U/l"},
      {"measurement": "HDL", "setting": "[5]; HFD + 1% Calebin A", "value": "104.50 ± 8.80^a mg/dl"},
      {"measurement": "TG", "setting": "[5]; HFD + 1% Calebin A", "value": "89.75 ± 5.85^b mg/dl"},
      {"measurement": "TCHO", "setting": "[5]; HFD + 1% Calebin A", "value": "110.50 ± 17.97^a mg/dl"},
      {"measurement": "GOT", "setting": "[5]; HFD + 1% Calebin A", "value": "77.50 ± 11.12^c U/l"},
      {"measurement": "HFD induced hepatic triglyceride", "setting": "[6]", "value": "attenuated"},
      {"measurement": "inflammatory infiltration in liver", "setting": "[6]; H&E", "value": "attenuated"},
      {"measurement": "hepatocellular ballooning degeneration", "setting": "[6]; H&E, NAFLD scoring", "value": "attenuated"}
    ]}
  ]
}
